Data published in patent publication US10016439B2, “Fused imidazole compounds” (ONO PHARMACEUTICAL CO., LTD., priority 2014, dated 2018).

Columns and labels:
GABAA α1/β3/γ2 = GABAA α1/β3/γ2 (Homo sapiens (Human), UniProt P14867+P18507); test: Functional assay (PatchXpress automated patch-clamp), α1 subtype; format: cell-based; conditions: % change of GABA EC20 response; compound 1 μM; HEK293 cells
Description: (§1) GABAA α5/β3/γ2 HEK293 cell line was used throughout the functional assay in PatchXpress (Molecular Devices), the automated patch-clamp system. Cells stably expressing the appropriate GABAA subtype (α5/β3/γ2, α1/β3/γ2, α2/β3/γ2 or α3/β3/γ2) were dissociated from poly-D-lysine treated tissue culture flasks using a mixture of one part TrypLE (Invitrogen, cat #12604): one part Dulbecco's Phosphate Buffered Saline (Invitrogen, cat #14190). The dissociated cells were re-suspended in growth media (D-MEM/F-12 media (Invitrogen, cat #11320) supplemented with 10% (v/v) Foetal Bovine Serum (Invitrogen, cat #10082) and 1% (v/v) non-essential amino acids (Invitrogen, cat #11140)) and allowed to recover for one hour at 37° C. in a humidified incubator with 5% CO2. At the end of the recovery period cells were centrifuged at 1,000 rpm for two minutes and the resulting pellet re-suspended in external solution (in mM; 137 NaCl, 4 KCl, 10 HEPES, 1.8 CaCl2, 1 MgCl2, 10 glucose, pH set to 7.35 with NaOH). Cells were counted and diluted to 2.5×10^6/ml in external solution. The patch-clamp assay protocol involved determination of current amplitude with control applications of GABA EC20 containing concentration-matched DMSO (0.3% v/v), then pre-incubation of the test compound for one minute prior to the addition of the same compound diluted with the GABA EC20. Compound and/or GABA was applied for five seconds, with two minute wash periods between applications. No wash period was present at the end of the compound pre-application stage. The internal solution comprised (in mM) 90 KCl, 50 KF, 11 EGTA, 10 HEPES, 1 MgCl2, 2 Mg-ATP, the pH was set to 7.35 with KOH and the holding potential was −60 mV. Compounds were assayed at a concentration of 1 μM.

GABAA α5/β3/γ2 [1] = biological target: T1, GABAA α5/β3/γ2 (Homo sapiens (Human), UniProt P18507+P31644); test: Functional assay (PatchXpress automated patch-clamp), α5 subtype; format: cell-based; conditions: % change of GABA EC20 response; compound 1 μM; HEK293 cells
Description: as §1

GABAA α5/β3/γ2 [2] = biological target: T1, GABAA α5/β3/γ2; test: Binding assay (Scintillation Proximity Assay, [3H]-Ro15-1788); conditions: membranes of HEK293 cells expressing GABAA α5/β3/γ2
Method: The GABAAα5/β3/γ2 protein used for the Scintillation Proximity Assay was derived from membranes produced from HEK293 GABAA α5/β3/γ2 expressing HEK293 cell line. HEK293 GABAA α5/β3/γ2 expressing HEK293 cell line was cultured, then harvested and centrifuged the cells. Membranes were produced by homogenization of the cell pellet with a tissue homogenizer. The resulting homogenate was centrifuged at 48,000 g for 30 minutes, re-suspended and washed twice with 10 mM potassium phosphate buffer, pH 7.4. Final resuspension of membranes took place in buffer containing 10 mM potassium phosphate and 100 mM KCl.
For assay, test compound (50×) was added 0.5 μl per well to a white-walled clear-bottomed 384-well plate.
Full signal controls were prepared by the addition of 0.5 μl of DMSO to the appropriate wells. Mixture of 10 μl of protein and 10 μl of PVT-WGA beads (0.2 mg/well) were added to the plate. Both protein and bead were diluted to the desired concentration with 10 mM potassium phosphate, pH 7.4, containing 100 mM KCl. The plate was pre-incubated for 30 minutes at room temperature with shaking before initiation of the reaction by the addition of radioligand. 5 μl of [^3H]-Ro15-1788 was added at a concentration of 30 nM (5×) and the plates sealed. The reaction mix was incubated at room temperature overnight with gentle agitation on a plate shaker. The final DMSO concentration for all phases of the screening was 2% (v/v). At the end of the overnight incubation, the plates were centrifuged for two minutes at 1,000 rpm prior to reading on a Perkin Elmer Microbeta.
Concentration-response testing was performed in duplicate and the percent effect calculated for each replicate data point. The raw data was entered in Activity Base and the curves were fitted to the mean data using Excel and XL Fit, and shown as Ki.

[3] = Cryopreserved hepatocyte stability; format: in vitro ADME; conditions: human hepatocytes 0.5 million cells/mL, 1 μM, 37° C.; compound remaining; time point not stated
Method: Hepatocyte stability assays were performed using pooled human cryopreserved hepatocytes. Test and control compounds (testosterone, midazolam, 4-methylumbelliferone), prepared in DMSO, were incubated at an initial concentration of 1 μM (0.25% DMSO final, n=2) with hepatocytes at cell densities of 0.5 million cells/mL for both species at 37° C. Aliquots were removed at 0, 10, 20, 45 and 90 minutes for termination of reactions and compound extraction with acetonitrile containing an analytical internal standard. Samples were centrifuged and the supernatant fractions analysed for parent compound by mass spectrometry (LC-MS/MS).
(§2) The amount of compound remaining (expressed as %) was determined from the MS response in each sample relative to that in the T=0 samples (normalised for internal standard).
Ln plots of the % remaining were used to determine the half-life for compound disappearance using the relationship: t½(min)=−0.693/λ where λ is the slope of the Ln % remaining vs time curve. Hepatic Microsomal Stability: Half-life/Intrinsic Clearance Format

[4] = Hepatic microsomal stability; format: in vitro ADME; conditions: human microsomes 0.5 mg protein/mL, NADPH, 1 μM, 37° C.; compound remaining; time point not stated
Method: Microsomal stability assays were performed using pooled hepatic microsomes from human. Test and control compounds (propranolol or dextromethorphan, midazolam), prepared in DMSO, were incubated at an initial concentration of 1 μM (0.25% DMSO final, n=2) with microsomes (0.5 mg protein/mL) at 37° C. in the presence of the cofactor, NADPH (1 mM). Aliquots were removed at 0, 5, 10, 20 and 40 minutes for termination of reactions and compound extraction with acetonitrile containing an analytical internal standard. Samples were centrifuged and the supernatant fractions analysed for parent compound by mass spectrometry (LC-MS/MS).
as §2
Ln plots of the % remaining were used to determine the half-life for compound disappearance using the relationship: t½(min)=−0.693/λ where λ is the slope of the Ln % remaining vs time curve.

Chain of GABAA α1/β3/γ2 (P14867 28-456): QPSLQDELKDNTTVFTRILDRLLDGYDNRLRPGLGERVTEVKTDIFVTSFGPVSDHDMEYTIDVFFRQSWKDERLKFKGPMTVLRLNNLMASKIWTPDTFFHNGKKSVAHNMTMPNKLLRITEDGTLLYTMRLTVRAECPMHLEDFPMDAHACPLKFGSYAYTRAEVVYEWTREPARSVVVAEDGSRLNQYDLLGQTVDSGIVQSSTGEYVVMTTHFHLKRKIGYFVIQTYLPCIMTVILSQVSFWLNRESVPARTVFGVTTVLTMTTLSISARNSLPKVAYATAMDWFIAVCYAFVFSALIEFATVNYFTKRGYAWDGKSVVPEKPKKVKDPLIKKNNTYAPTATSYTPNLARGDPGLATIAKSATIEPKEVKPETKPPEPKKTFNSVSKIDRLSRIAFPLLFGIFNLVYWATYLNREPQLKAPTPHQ
Chain of GABAA α1/β3/γ2 (P28472 26-473 partner): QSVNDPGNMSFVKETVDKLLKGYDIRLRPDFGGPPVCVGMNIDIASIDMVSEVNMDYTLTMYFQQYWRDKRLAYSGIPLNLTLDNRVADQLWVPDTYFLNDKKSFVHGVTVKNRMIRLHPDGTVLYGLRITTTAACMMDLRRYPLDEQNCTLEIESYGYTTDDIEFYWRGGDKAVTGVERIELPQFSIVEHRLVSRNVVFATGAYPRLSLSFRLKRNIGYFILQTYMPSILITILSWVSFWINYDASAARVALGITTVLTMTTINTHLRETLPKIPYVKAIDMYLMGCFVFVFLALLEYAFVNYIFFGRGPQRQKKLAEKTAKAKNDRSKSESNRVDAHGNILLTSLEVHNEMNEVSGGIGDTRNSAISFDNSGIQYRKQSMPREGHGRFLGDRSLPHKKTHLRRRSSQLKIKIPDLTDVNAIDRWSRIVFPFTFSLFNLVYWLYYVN
Chain of GABAA α1/β3/γ2 (P18507 40-475): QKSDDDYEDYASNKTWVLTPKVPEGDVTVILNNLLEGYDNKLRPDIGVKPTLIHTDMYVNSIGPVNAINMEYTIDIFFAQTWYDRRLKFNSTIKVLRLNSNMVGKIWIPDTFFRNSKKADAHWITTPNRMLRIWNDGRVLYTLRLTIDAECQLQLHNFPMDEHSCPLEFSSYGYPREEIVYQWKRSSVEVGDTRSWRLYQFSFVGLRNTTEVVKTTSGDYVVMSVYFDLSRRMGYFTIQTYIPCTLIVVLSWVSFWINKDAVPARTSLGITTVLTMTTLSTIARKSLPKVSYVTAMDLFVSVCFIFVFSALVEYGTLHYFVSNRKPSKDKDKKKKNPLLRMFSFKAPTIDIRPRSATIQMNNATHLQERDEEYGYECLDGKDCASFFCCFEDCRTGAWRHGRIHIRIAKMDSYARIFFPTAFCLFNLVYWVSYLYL
T1 sequence (P31644 32-462): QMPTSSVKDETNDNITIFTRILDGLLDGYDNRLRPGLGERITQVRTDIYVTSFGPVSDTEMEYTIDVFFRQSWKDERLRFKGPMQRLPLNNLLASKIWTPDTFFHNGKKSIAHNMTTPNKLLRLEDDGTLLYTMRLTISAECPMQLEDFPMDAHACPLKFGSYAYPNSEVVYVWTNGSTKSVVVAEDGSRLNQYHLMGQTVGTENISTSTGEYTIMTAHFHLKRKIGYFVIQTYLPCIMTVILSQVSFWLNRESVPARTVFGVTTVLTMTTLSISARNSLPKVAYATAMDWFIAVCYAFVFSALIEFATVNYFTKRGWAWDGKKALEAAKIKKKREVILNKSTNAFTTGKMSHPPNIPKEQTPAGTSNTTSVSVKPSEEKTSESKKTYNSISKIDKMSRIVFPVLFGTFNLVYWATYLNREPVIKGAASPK
T1 sequence (P28472 26-473 partner): as the sequence (P28472 26-473 partner) above
T1 sequence (P18507 40-475): as the sequence (P18507 40-475) above

Structure (SMILES) | inhibition at 1 µM (GABAA α1/β3/γ2) [%] | inhibition at 1 µM (GABAA α5/β3/γ2 [1]) [%] | Ki (GABAA α5/β3/γ2 [2]) [nM] | hepatocyte stability (%) [3] [%] | microsomal stability (%) [4] [%]
O=C1COc2cc(Nc3cc4c(cn3)ncn4CC3CC3)ccc2N1C1CC1 [Example 37, 4-Cyclopropyl-7-((1-(cyclopropylmethyl)-1H-imidazo[4,5-c]pyridin-6-yl)amino)-2H-benzo[b][1,4]oxazin-3(4H)-one] | -5 | 46 | 38.8 |  | 
CN1C(=O)COc2ncc(Nc3ccc4ncn(CC5CC5)c4n3)cc21 [Example 111, 7-((3-(Cyclopropylmethyl)-3H-imidazo[4,5-b]pyridin-5-yl)amino)-1-methyl-1H-pyrido[2,3-b][1,4]oxazin-2(3H)-one] | -0.3 | 44.4 | 34.6 |  | 
Cc1c(F)c(Nc2cc3c(cn2)N(C)C(=O)CO3)cc2c1ncn2CC1CC1 [Example 87, 7-((1-(Cyclopropylmethyl)-5-fluoro-4-methyl-1H-benzo[d]imidazol-6-yl)amino)-4-methyl-2H-pyrido[4,3-b][1,4]oxazin-3(4H)-one] |  |  |  | 103 | 76
CN1C(=O)COc2cc(Nc3cc4c(cc3F)ncn4CC3CC(F)(F)C3)cnc21 [Example 52, 7-((1-((3,3-Difluorocyclobutyl)methyl)-5-fluoro-1H-benzo[d]imidazol-6-yl)amino)-4-methyl-2H-pyrido[3,2-b][1,4]oxazin-3(4H)-one] | 7.5 | 41.8 | 6.7 |  | 
Fc1cc(Nc2cc3c(ncn3CC3CC3)c(F)c2F)ccc1-n1ccnc1 [Example 95, 1-(Cyclopropylmethyl)-4,5-difluoro-N-(3-fluoro-4-(1H-imidazol-1-yl)phenyl)-1H-benzo[d]imidazol-6-amine] |  |  |  | 96 | 89
Cc1nc(Nc2cnc3c(c2)OCC(=O)N3C)cc2c1ncn2CC1CC1 [Example 120, 7-((1-(Cyclopropylmethyl)-4-methyl-1H-imidazo[4,5-c]pyridin-6-yl)amino)-4-methyl-2H-pyrido[3,2-b][1,4]oxazin-3(4H)-one] |  |  |  | 85 | 94
CN1C(=O)COc2cc(Nc3cc4c(cc3F)ncn4CCC3CC3)cnc21 [Example 67, 7-((1-(2-Cyclopropylethyl)-5-fluoro-1H-benzo[d]imidazol-6-yl)amino)-4-methyl-2H-pyrido[3,2-b][1,4]oxazin-3(4H)-one] | -0.5 | 52.5 | 4.1 |  | 
COCCN1C(=O)COc2cc(Nc3ncc4ncn(CC5CC5)c4n3)ccc21 [Example 46, 7-((9-(Cyclopropylmethyl)-9H-purin-2-yl)amino)-4-(2-methoxyethyl)-2H-benzo[b][1,4]oxazin-3(4H)-one] | -0.9 | 42.4 | 38 |  | 
CN1C(=O)COc2cc(Nc3cnc4ncn(CC5CC5)c4n3)ccc21 [Example 42, 7-((1-(Cyclopropylmethyl)-1H-imidazo[4,5-b]pyrazin-6-yl)amino)-4-methyl-2H-benzo[b][1,4]oxazin-3(4H)-one] | 0.2 | 55.9 | 24 |  | 
Cc1nc(Nc2ccc3c(n2)OCC(=O)N3C)cc2c1ncn2CC1CC1 [Example 124, 6-((1-(Cyclopropylmethyl)-4-methyl-1H-imidazo[4,5-c]pyridin-6-yl)amino)-1-methyl-1H-pyrido[2,3-b][1,4]oxazin-2(3H)-one] |  |  |  | 75 | 72
Cc1c(F)c(Nc2ccc(-n3ccnc3)nc2)cc2c1ncn2CC1CC1 [Example 88, N-(6-(1H-Imidazol-1-yl)pyridin-3-yl)-1-(cyclopropylmethyl)-5-fluoro-4-methyl-1H-benzo[d]imidazol-6-amine] |  |  |  | 81 | 95
Cn1c(=O)oc2cc(Nc3cnc4ncn(CC5CC5)c4n3)ccc21 [Example 43, 6-((1-(Cyclopropylmethyl)-1H-imidazo[4,5-b]pyrazin-6-yl)amino)-3-methylbenzo[d]oxazol-2(3H)-one] | 8 | 55.1 | 42 |  | 
CN1C(=O)COc2nc(Nc3cc(C(F)(F)F)c4ncn(CC5CC5)c4n3)ccc21 [Example 151, 6-((3-(Cyclopropylmethyl)-7-(trifluoromethyl)-3H-imidazo[4,5-b]pyridin-5-yl)amino)-1-methyl-1H-pyrido[2,3-b][1,4]oxazin-2(3H)-one] |  |  |  | 101 | 77
Cc1cc(Nc2ccc3c(n2)OCC(=O)N3C)nc2c1ncn2CC1CC1 [Example 159, 6-((3-(Cyclopropylmethyl)-7-methyl-3H-imidazo[4,5-b]pyridin-5-yl)amino)-1-methyl-1H-pyrido[2,3-b][1,4]oxazin-2(3H)-one] | 4.8 | 46.7 | 6.4 |  | 
